Experimental data from patent US7001926B2, “Tubulin binding agents and corresponding prodrug constructs” (Oxigene, Inc., priority 2000, dated 2006).
Like-named read-outs stand apart in the source and are kept apart here.

Tests used:
tubulin = experiment: Inhibition of tubulin polymerization assay; type: biochemical; details: read-out: IC50, In Vitro Inhibition of Tubulin Polymerization; purified bovine brain tubulin, 15 min preincubation at 37° C.
Experimental: IC50 values for tubulin polymerization were determined according to a previously described procedure (Bai et al, Cancer Research, 1996). Purified tubulin is obtained from bovine brain cells as described in Hamel and Lin (Hamel and Lin, Biochemistry, 1984). Various amounts of inhibitor were preincubated for 15 minutes at 37° C. with purified tubulin. After the incubation period, the reaction was cooled and GTP was added to induce tubulin polymerization. Polymerization was then monitored in a Gilford spectrophotometer at 350 nm. The final reaction mixtures (0.25 ml) contained 1.5 mg/ml tubulin, 0.6 mg/ml microtubule-associated proteins (MAPs), 0.5 mM GTP, 0.5 mM MgCl2, 4% DMSO and 0.1M 4-morpholineethanesulfonate buffer (MES, pH 6.4).

SF-295 = experiment: Growth inhibition, SF-295 CNS cancer cell line (SRB); type: cell-based, human; details: 48 hours
Experimental: (§1) Briefly, the cell suspensions, diluted according to the particular cell type and the expected target cell density (5,000–40,000 cells per well based on cell growth characteristics), were added by pipet (100 μl) to 96-well microtiter plates. Inoculates were allowed a preincubation time of 24–28 hours at 37° C. for stabilization. Incubation with the inhibitor compounds lasted for 48 hours in 5% CO2 atmosphere and 100% humidity. Determination of cell growth was performed by in situ fixation of cells, followed by staining with a protein-binding dye sulforhodamine B (SRB), which binds to the basic amino acids of cellular macromolecules. The solubilized stain was measured spectrophotometrically.
(§2) Several compounds were evaluated for cytotoxic activity against […] P388 leukemia cell lines. […] These and additional compounds were evaluated in terms of growth inhibitory activity against several other human cancer cell lines including: central nervous system (“CNS”, SF-295), pancreas (BXPC-3), non-small cell lung cancer (“lung-NSC”, NCI-H460), breast (MCF-7), colon (KM20L2), and prostate (DU-145).

BXPC-3 = experiment: Growth inhibition, BXPC-3 pancreas cancer cell line (SRB); type: cell-based, human; details: 48 hours
Experimental: as §1, §2

NCI-H460 = experiment: Growth inhibition, NCI-H460 non-small cell lung cancer cell line (SRB); type: cell-based, human; details: lung-NSC, 48 hours
Experimental: as §1, §2

MCF-7 = experiment: Growth inhibition, MCF-7 breast cancer cell line (SRB); type: cell-based, human; details: 48 hours
Experimental: as §1, §2

KM20L2 = experiment: Growth inhibition, KM20L2 colon cancer cell line (SRB); type: cell-based, human; details: 48 hours
Experimental: as §1, §2

DU-145 = experiment: Growth inhibition, DU-145 prostate cancer cell line (SRB); type: cell-based, human; details: 48 hours
Experimental: as §1, §2

[1] = tested on: murine hemangioendothelioma MHEC-5T cell line; experiment: In vitro antiproliferative activity, MTT assay; type: cell-based
Experimental: The following compounds were tested for in vitro antiproliferative activity against the murine hemangioendothelioma MHEC-5T cell line using a standard MTT assay (see Mosman, J. Immunol. Methods, 1983). In actively proliferating cells, an increase in MTT conversion is spectrophotometrically quantified by the reduction of MTT (3-[4,5-dimethylthiazol-2-yl]-2,5-diphenyl tetrazolium bromide) to the insoluble formazan dye by enzymes associated with metabolic activity. A compound with growth inhibitory activity will cause a reduction in dye formation relative to cells exposed to a vehicle control.

[2] = tested on: MHEC-5T hemangioendothelioma tumor; experiment: Inhibition of tumor blood flow, Fluorescent Bead Assay; type: in vivo, SCID mice; details: for % VAPM (vessel area per tumor tissue area as a percentage of the control) / % VNPM (vessel number per tumor tissue area as a percentage of the control): 24 hours post-treatment
Experimental: The antivascular effects of the C-5 dihydronaphthalene phosphate prodrug Oxi-com 197, 43 was assessed in tumor-bearing mice using a Fluorescent Bead Assay. A MHEC-5T hemangioendothelioma tumor model was established by subcutaneous injection of 0.5×10^6 cultured transformed cell murine myocardial vascular endothelial cell line (“MHEC5-T”) cells into the right flank of Fox Chase CB-17 Severe Combined Immunodeficient (“SCID”) mice. When transplanted tumors reached a size of 500 mm^3 (a size without development of necrosis), the mice received a single intraperitoneal (i.p.) injection of saline control or compound at doses ranging from 3.2 to 25 mg/kg. At 24 hours post-treatment, mice were injected intravenously with 0.25 ml of diluted FluoSphere beads (1:6 in physiological saline) in the tail vein, sacrificed after 3 minutes, and tumor was excised for cryosectioning. Tumor cryosections at a thickness of 8 um were directly examined using quantitative fluorescent microscopy. Blood vessels were indicated by blue fluorescence from injected beads. For quantification, image analysis of 3 sections from three tumors treated in each group were examined and vascular shutdown was expressed as vessel area (mm^2) per tumor tissue area (mm^2) as a percentage of the control (“% VAPM”) and as vessel number per tumor tissue area (mm^2) as a percentage of the control (“% VNPM”). The results as shown in Table 11 indicate a clear dose-dependent effect of the agent on tumor blood flow as indicated by the reduction in blood vessel number and vessel area. Administration of a 25 mg/kg dose of Oxi-com 197 was particularly effective, causing a 90% reduction in tumor vessel number relative to the control.
Additional compounds of the present invention were tested for antivascular effects at two dosages (100 mg/kg and 10 mg/kg) using the same Fluorescent Bead Assay as in the previous experiment.

[3] = tested on: MDA-MB-231 human breast adenocarcinoma; experiment: Tumor growth control in vivo; set-up: species or system SCID mice
Experimental: The antitumor activity of C-5 dihydronaphthalene phosphate prodrug, Oxi-com 197, was assessed in tumor-bearing mice by measuring its effects on tumor volume in comparison with CA4P. A human breast adenocarcinoma model was established by subcutaneous injection of cultured MDA-MB-231 cells in Fox Chase CB-17 SCID mice. When the average tumor size reached 50–100 mm^3, mice were randomly divided into several groups (n=10) with no significant difference in body weight and tumor size. Mice were administered CA4P or Oxi-com 197 in saline carrier at doses of 25, 50 or 100 mg/kg by daily intraperitoneal (i.p.) injection for 5 consecutive days (Q1×5). Saline carrier only was used as the control treatment. On Day 3, 7, 10, 13, 17 and 23, tumors were excised from animals in each treatment group (n=2) and measured by width and length. Tumor volume was calculated according to the following formula: Length×Width^2×0.4. The dosage effects of Oxi-com 197 is illustrated in FIG. 14.

[4] = 5 days, read-out: IC50 at 5 days
[5] = read-out: IC50 at 1 hour, 1 hour

CCOP(=O)(Nc1c(OC)ccc2c1CCC=C2c1cc(OC)c(OC)c(OC)c1)OCC [Oxi-com 143, 6-methoxy-1-(3′,4′,5′-trimethoxyphenyl)-5-diethylphosphoramidate-3,4-dihydronapthalene]
IC50 (tubulin): > 40000 nM

COc1cc2c(cc1O)C(c1cc(OC)c(OC)c(OC)c1)=CCC2 [Oxi-com 158]
GI50 for Cell Line SF-295 (SF-295): 5.4 µg/mL | GI50 for Cell Line BXPC-3 (BXPC-3): 1.8 µg/mL | GI50 for Cell Line NCI-H460 (NCI-H460): 3.2 µg/mL | GI50 for Cell Line MCF-7 (MCF-7): 1.5 µg/mL | GI50 for Cell Line KM20L2 (KM20L2): 2.6 µg/mL | GI50 for Cell Line DU-145 (DU-145): 3.4 µg/mL

COc1cc(C2=CCCc3c2ccc(OC)c3OP(=O)([O-])[O-])cc(OC)c1OC.[Na+].[Na+] [Oxi-com 197]
GI50 for Cell Line SF-295 (SF-295): 0.0033 µg/mL | GI50 for Cell Line BXPC-3 (BXPC-3): 0.28 µg/mL | GI50 for Cell Line NCI-H460 (NCI-H460): 0.011 µg/mL | GI50 for Cell Line MCF-7 (MCF-7): 0.0045 µg/mL | GI50 for Cell Line KM20L2 (KM20L2): 0.33 µg/mL | GI50 for Cell Line DU-145 (DU-145): 0.0055 µg/mL | IC50 [1, 4]: 3 nM | IC50 [1, 5]: 100 nM | % VAPM (vessel area per tumor tissue area as a percentage of the control) ([2]; 6.3 mg/kg single i.p.): 65.4 ± 4.9% | % VNPM (vessel number per tumor tissue area as a percentage of the control) ([2]; 6.3 mg/kg single i.p.): 66.5 ± 0.5% | % VAPM (vessel area per tumor tissue area as a percentage of the control) ([2]; 12.5 mg/kg single i.p.): 32.2 ± 6.8% | % VNPM (vessel number per tumor tissue area as a percentage of the control) ([2]; 12.5 mg/kg single i.p.): 55.5 ± 0.8% | reduction in tumor vessel number relative to the control ([2]; 25 mg/kg dose): 90% | % VAPM (vessel area per tumor tissue area as a percentage of the control) ([2]; 25 mg/kg single i.p.): 13.0 ± 5.0% | % VNPM (vessel number per tumor tissue area as a percentage of the control) ([2]; 25 mg/kg single i.p.): 10.4 ± 6.3% | tumor growth (tumor volume) relative to control treatment ([3]; 25, 50, and 100 mg/kg i.p. daily for 5 days (Q1×5)): significantly inhibited tumor growth | antitumor activity relative to CA4P ([3]; MDA-MB-231 model, i.p. Q1×5): enhanced antitumor activity relative to CA4P

COc1cc(C2=CCCc3c2cc(OP(=O)(O)O)c(OC)c3OP(=O)(O)O)cc(OC)c1OC [Oxi-com 199]
IC50 (tubulin): > 40000 nM | IC50 [1, 4]: > 44800 nM | IC50 [1, 5]: > 44800 nM

COc1cc(C2=CCCc3c2cc(O)c(OC)c3O)cc(OC)c1OC [Oxi-com 200]
IC50 [1, 4]: 16200 nM | IC50 [1, 5]: > 50000 nM

COc1cc(C(=O)C2=CCCc3c2ccc(OC)c3OP(=O)([O-])[O-])cc(OC)c1OC.[Na+].[Na+] [Oxi-com 224]
IC50 [1, 4]: 3 nM | IC50 [1, 5]: 400 nM | % VAPM at 10 mg/kg dose [2]: 17% | % VAPM at 100 mg/kg dose [2]: 46%

COc1cc(C(=O)c2cccc3c(OP(=O)([O-])[O-])c(OC)ccc23)cc(OC)c1OC.[Na+].[Na+] [Oxi-com 225]
IC50 [1, 4]: 5 nM | IC50 [1, 5]: 400 nM | % VAPM at 10 mg/kg dose [2]: 35% | % VAPM at 100 mg/kg dose [2]: 60%

COc1ccc2c(c1NC(=O)[C@@H](N)CO)CCC=C2c1cc(OC)c(OC)c(OC)c1 [Oxi-com 229]
IC50 [1, 4]: > 1400 nM | IC50 [1, 5]: > 44000 nM

COc1ccc(C2=CCCc3c2ccc(OC)c3O)c(OC)c1 [Oxi-com 238]
IC50 [1, 4]: 40 nM | IC50 [1, 5]: 14000 nM

COc1ccc(C2=CCCc3c2ccc(OC)c3OP(=O)(O)O)c(OC)c1 [Oxi-com 239]
IC50 [1, 4]: 60 nM | IC50 [1, 5]: 2400 nM

COc1ccc(OC)c(C2=CCCc3c2ccc(OC)c3O)c1 [Oxi-com 240]
IC50 [1, 4]: 30 nM | IC50 [1, 5]: 8000 nM

COc1ccc(OC)c(C2=CCCc3c2ccc(OC)c3OP(=O)(O)O)c1 [Oxi-com 241]
IC50 [1, 4]: 80 nM | IC50 [1, 5]: 2500 nM

COc1ccc(C2=CCCc3c2ccc(OC)c3OP(=O)(O)O)cc1OC [Oxi-com 243]
IC50 [1, 4]: 300 nM | IC50 [1, 5]: 20000 nM
